The test has as its target T1, human TLR7 (hTLR7) (Homo sapiens, UniProt Q9NYK1).
T1 construct: host or cells: HEK293 (HEK-Blue hTLR7)
T1 sequence (Q9NYK1 27-1049): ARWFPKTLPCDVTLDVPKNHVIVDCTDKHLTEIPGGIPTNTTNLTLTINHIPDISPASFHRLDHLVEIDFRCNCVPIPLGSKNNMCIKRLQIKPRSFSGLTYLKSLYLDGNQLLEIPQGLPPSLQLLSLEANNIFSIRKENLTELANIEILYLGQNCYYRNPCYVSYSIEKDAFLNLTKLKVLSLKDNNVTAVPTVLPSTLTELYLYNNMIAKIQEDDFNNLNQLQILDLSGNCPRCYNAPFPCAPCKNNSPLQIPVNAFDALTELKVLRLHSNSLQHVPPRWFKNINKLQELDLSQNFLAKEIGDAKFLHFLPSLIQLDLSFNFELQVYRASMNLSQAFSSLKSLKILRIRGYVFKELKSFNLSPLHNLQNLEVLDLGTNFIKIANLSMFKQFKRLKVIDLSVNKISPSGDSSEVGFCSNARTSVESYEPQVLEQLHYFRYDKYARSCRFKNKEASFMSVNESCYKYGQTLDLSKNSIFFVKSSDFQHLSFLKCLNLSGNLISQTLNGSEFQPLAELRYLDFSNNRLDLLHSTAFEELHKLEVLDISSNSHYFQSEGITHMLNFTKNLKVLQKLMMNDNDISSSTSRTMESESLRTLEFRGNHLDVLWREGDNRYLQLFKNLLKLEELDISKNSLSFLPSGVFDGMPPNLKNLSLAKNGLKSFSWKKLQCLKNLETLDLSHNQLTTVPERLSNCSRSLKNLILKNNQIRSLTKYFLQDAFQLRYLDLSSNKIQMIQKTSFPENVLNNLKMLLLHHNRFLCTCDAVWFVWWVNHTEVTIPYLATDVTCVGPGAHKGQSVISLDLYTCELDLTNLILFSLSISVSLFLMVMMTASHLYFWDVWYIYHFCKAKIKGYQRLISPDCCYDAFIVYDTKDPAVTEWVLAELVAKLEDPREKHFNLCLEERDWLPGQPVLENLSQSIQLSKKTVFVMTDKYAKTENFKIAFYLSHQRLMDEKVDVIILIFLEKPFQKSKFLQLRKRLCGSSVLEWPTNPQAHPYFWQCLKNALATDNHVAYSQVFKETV
The test is described as follows: HEK-Blue hTLR7 cell assay (NF-kB/AP-1 driven SEAP reporter). It counts as cell-based. An excerpt:
HEK-Blue™ TLR7 cells were purchased from Invivogen (San Diego, Calif.). The following description was taken from the product information sheet.
“HEK-Blue™ hTLR7 cells are designed for studying the stimulation of human TLR7 (hTLR7) by monitoring the activation of NF-kB. HEK-Blue™ hTLR7 cells were obtained by co-transfection of the hTLR7 gene and an optimized secreted embryonic alkaline phosphatase (SEAP) reporter gene into HEK293 cells. The SEAP reporter gene is placed under the control of the IFN-b minimal promoter fused to five NF-kB and AP-1-binding sites. Stimulation with a TLR7 ligand activates NF-kB and AP-1 which induce the production of SEAP, which is detected by the HEK-Blue™ Detection cell culture medium.”
A typical assay protocol involved the following steps:
1. Cells were cultured according to the product information sheet.
2. 10 mM compound stock in DMSO were first diluted to 3 mM and then 3-fold serially diluted using DMSO to afford a 10-pt dilution.
3. 3 μl of the diluted DMSO were added to 57 μl HEK-Blue™ Detection media for a further 20-fold dilution.
4. 10 μl of the diluted compound in assay media were added into 40 μl cell culture (in HEK-Blue™ Detection media) in 384-well plate. Final cell concentration=8,000 cells per well.
5. The plates were incubated at 37° C. in 5% CO2 for 16 h. SEAP was determined using a spectrophotometer at 620-655 nm.

[1] abbreviates: HEK TLR7 activity of Compound 1-peptide conjugates, read-out: EC50, Peptide - Compound 1 Conjugate.
[2] abbreviates: HEK TLR7 activity of unconjugated (naked) peptides, read-out: EC50, Peptide without Compound 1.
Where [3] appears, read: HEK-Blue hTLR7 cells, 16 h incubation, SEAP read at 620-655 nm, read-out: HEK-TLR7 EC50.

Structures are written as SMILES. Where two headings read alike, the source gives them in different places. Residues, ends and D or L forms follow the SMILES beside them. *: point of attachment. X1 = CCCC[C@@H](CCS(C)(=O)=O)Nc1nc(N)nc(C)c1Cc1cc(CC(=O)*)ccc1OC

For the compound `CCCC[C@@H](CCS(C)(=O)=O)Nc1nc(N)nc(C)c1Cc1cc(CC(=O)N[C@@H](CC(N)=O)C(=O)N[C@@H](CCCNC(=N)N)C(=O)N[C@@H](Cc2ccccc2)C(=O)N[C@H](C(=O)N[C@@H](CO)C(=O)N[C@H](C(=O)N[C@@H](Cc2ccccc2)C(=O)N[C@@H](C)C(=O)N[C@@H](CO)C(=O)NCC(=O)N2CCC[C@H]2C(=O)N[C@@H](CO)C(=O)N[C@@H](CCC(N)=O)C(=O)N[C@@H](CCCCN)C(=O)N[C@H](C(=O)N[C@@H](CCC(N)=O)C(=O)N[C@@H](CC(C)C)C(=O)N[C@H](C(=O)N[C@@H](CC(N)=O)C(=O)N[C@@H](CC(N)=O)C(=O)N[C@@H](CC(N)=O)C(=O)NCC(=O)N[C@@H](CO)C(=O)N[C@@H](Cc2c[nH]c3ccccc23)C(=O)N[C@@H](Cc2c[nH]cn2)C(=O)O)C(C)C)[C@@H](C)CC)[C@@H](C)CC)C(C)C)ccc1OC` [*AP5] (X1-NRFVSIFASGPSQKIQLVNNNGSWH-OH), the EC50 worked out at 150 nM.

Turning to `CCCC[C@@H](CCS(C)(=O)=O)Nc1nc(N)nc(C)c1Cc1cc(CC(=O)N[C@@H](CC(C)C)C(=O)N[C@@H](CC(C)C)C(=O)N[C@H](C(=O)N[C@@H](CCCNC(=N)N)C(=O)N[C@H](C(=O)N[C@@H](CC(C)C)C(=O)N[C@H](C(=O)N[C@H](C(=O)N2CCC[C@H]2C(=O)N[C@@H](CCC(N)=O)C(=O)N[C@@H](CO)C(=O)N[C@@H](CC(C)C)C(=O)N[C@@H](CC(=O)O)C(=O)N[C@@H](CO)C(=O)N[C@@H](Cc2c[nH]c3ccccc23)C(=O)N[C@@H](Cc2c[nH]c3ccccc23)C(=O)N[C@H](C(=O)N[C@@H](CO)C(=O)N[C@@H](CC(C)C)C(=O)N[C@@H](CC(N)=O)C(=O)N[C@@H](Cc2ccccc2)C(=O)N[C@@H](CC(C)C)C(=O)NCC(=O)NCC(=O)N[C@@H](CO)C(=O)O)[C@@H](C)O)[C@@H](C)CC)[C@@H](C)O)[C@@H](C)CC)[C@@H](C)O)ccc1OC` [*AP9] (X1-LLTRILTIPQSLDSWWTSLNFLGGS-OH), the concentration for a half-maximal effect (EC50) is 320 nM.

With `CCCC[C@@H](CCS(C)(=O)=O)Nc1nc(N)nc(C)c1Cc1cc(CC(=O)N[C@@H](CCC(=O)O)C(=O)N[C@@H](CO)C(=O)N[C@@H](CC(C)C)C(=O)N[C@@H](CCCCN)C(=O)N[C@H](C(=O)N[C@@H](CO)C(=O)N[C@@H](CCC(N)=O)C(=O)N[C@@H](C)C(=O)N[C@H](C(=O)N[C@@H](Cc2c[nH]cn2)C(=O)N[C@@H](C)C(=O)N[C@@H](C)C(=O)N[C@@H](Cc2c[nH]cn2)C(=O)N[C@@H](C)C(=O)N[C@@H](CCC(=O)O)C(=O)N[C@H](C(=O)N[C@@H](CC(N)=O)C(=O)N[C@@H](CCC(=O)O)C(=O)N[C@@H](C)C(=O)NCC(=O)N[C@@H](CCCNC(=N)N)C(=O)N[C@@H](CCC(=O)O)C(=O)N[C@H](C(=O)N[C@H](C(=O)NCC(=O)O)C(C)C)C(C)C)[C@@H](C)CC)C(C)C)[C@@H](C)CC)ccc1OC` [*AP10] (X1-ESLKISQAVHAAHAEINEAGREVVG-OH), under setting [1], the EC50 was 210 nM.

On to `CCCC[C@@H](CCS(C)(=O)=O)Nc1nc(N)nc(C)c1Cc1cc(CC(=O)N[C@@H](CCC(=O)O)C(=O)N[C@@H](CCC(N)=O)C(=O)N[C@@H](CC(C)C)C(=O)N[C@@H](CO)C(=O)N[C@@H](CO)C(=O)N[C@H](C(=O)N[C@@H](CO)C(=O)N[C@@H](CO)C(=O)N[C@@H](Cc2ccccc2)C(=O)N[C@@H](CCC(=O)O)C(=O)N[C@@H](CCCNC(=N)N)C(=O)N[C@@H](Cc2ccccc2)C(=O)N[C@@H](CCC(=O)O)C(=O)N[C@H](C(=O)N[C@@H](Cc2ccccc2)C(=O)N2CCC[C@H]2C(=O)N[C@@H](CCCCN)C(=O)N[C@@H](CCC(=O)O)C(=O)N[C@@H](CO)C(=O)N[C@@H](CO)C(=O)N[C@@H](Cc2c[nH]c3ccccc23)C(=O)N2CCC[C@H]2C(=O)N[C@@H](CC(N)=O)C(=O)N[C@@H](Cc2c[nH]cn2)C(=O)N[C@@H](CC(N)=O)C(=O)O)[C@@H](C)CC)C(C)C)ccc1OC` [*AP11] (X1-EQLSSVSSFERFEIFPKESSWPNHN-OH), for which the EC50 under setting [1] stood at 300 nM.

The compound `CSCC[C@H](NC(=O)CNC(=O)[C@@H](NC(=O)[C@H](CCCNC(=N)N)NC(=O)[C@@H](NC(=O)[C@H](CC(C)C)NC(=O)[C@H](C)NC(=O)[C@H](CCCNC(=N)N)NC(=O)[C@@H](NC(=O)[C@H](CCCNC(=N)N)NC(=O)[C@H](CCC(N)=O)NC(=O)[C@H](Cc1ccc(O)cc1)NC(=O)[C@@H](NC(=O)[C@@H](NC(=O)[C@H](CC(=O)O)NC(=O)[C@H](CC(N)=O)NC(=O)[C@H](CC(C)C)NC(=O)[C@H](CC(N)=O)NC(=O)[C@H](CO)NC(=O)[C@@H](N)Cc1c[nH]cn1)[C@@H](C)O)[C@@H](C)O)[C@@H](C)O)C(C)C)[C@@H](C)O)C(=O)N[C@@H](CC(=O)O)C(=O)N1CCC[C@H]1C(=O)N[C@@H](CCCNC(=N)N)C(=O)N[C@@H](CCSC)C(=O)N[C@@H](CS)C(=O)O` [AP1] came in with an EC50 above 30000 nM.

With `CC[C@H](C)[C@H](NC(=O)[C@H](CCCCN)NC(=O)CNC(=O)[C@@H](NC(=O)[C@@H](NC(=O)[C@H](Cc1ccccc1)NC(=O)[C@H](C)NC(=O)[C@H](CCCNC(=N)N)NC(=O)CNC(=O)[C@@H]1CCCN1C(=O)CNC(=O)[C@H](CCCNC(=N)N)NC(=O)[C@H](CCC(N)=O)NC(=O)[C@@H](NC(=O)[C@H](CCCNC(=N)N)NC(=O)[C@@H](NC(=O)[C@H](CO)NC(=O)[C@H](CCCCN)NC(=O)[C@H](CCCNC(=N)N)NC(=O)[C@@H](N)CCCCN)[C@@H](C)CC)[C@@H](C)CC)C(C)C)[C@@H](C)O)C(=O)NCC(=O)N[C@@H](CC(N)=O)C(=O)N[C@@H](CCSC)C(=O)N[C@@H](CCCNC(=N)N)C(=O)N[C@@H](CCC(N)=O)C(=O)O` [AP2], the EC50 under setting [2] is above 30000 nM.

Regarding `CC[C@H](C)[C@H](NC(=O)[C@H](CC(C)C)NC(=O)[C@@H](NC(=O)[C@H](CC(C)C)NC(=O)[C@H](CC(C)C)NC(=O)[C@H](CC(C)C)NC(=O)CN)C(C)C)C(=O)N[C@@H](Cc1ccc(O)cc1)C(=O)N[C@@H](CC(C)C)C(=O)N[C@@H](Cc1ccc(O)cc1)C(=O)NCC(=O)N1CCC[C@H]1C(=O)N[C@@H](CO)C(=O)N[C@@H](CC(C)C)C(=O)N[C@@H](Cc1ccc(O)cc1)C(=O)N[C@@H](CCCNC(=N)N)C(=O)N[C@@H](CCCNC(=N)N)C(=O)N[C@@H](Cc1ccccc1)C(=O)N[C@@H](Cc1ccccc1)C(=O)N[C@@H](CO)C(=O)N[C@@H](CC(N)=O)C(=O)N[C@@H](CC(=O)O)C(=O)N[C@@H](CS)C(=O)N[C@@H](CS)C(=O)N[C@@H](CO)C(=O)O` [AP4] (H-GLLLVLIYLYGPSLYRRFFSNDCCS-OH), the EC50 under setting [2] was above 30000 nM.

The compound `CC[C@H](C)[C@H](NC(=O)[C@H](CCCCN)NC(=O)CNC(=O)[C@@H](NC(=O)[C@@H](NC(=O)[C@@H](NC(=O)[C@H](Cc1ccccc1)NC(=O)[C@H](C)NC(=O)[C@H](CCCNC(=N)N)NC(=O)CNC(=O)[C@@H]1CCCN1C(=O)CNC(=O)[C@H](CCCNC(=N)N)NC(=O)[C@H](CCC(N)=O)NC(=O)[C@@H](NC(=O)[C@H](CCCNC(=N)N)NC(=O)[C@@H](NC(=O)[C@H](CO)NC(=O)[C@H](CCCCN)NC(=O)[C@H](CCCNC(=N)N)NC(=O)[C@@H](N)CCCCN)[C@@H](C)CC)[C@@H](C)CC)C(C)C)[C@@H](C)O)[C@@H](C)CC)C(=O)NCC(=O)N[C@@H](CC(N)=O)C(=O)N[C@@H](CCSC)C(=O)N[C@@H](CCCNC(=N)N)C(=O)O` [AP6] had an EC50 above 30000 nM.

Consider `CCCC[C@@H](CCS(C)(=O)=O)Nc1nc(N)nc(C)c1Cc1cc(CC(=O)O)ccc1OC` [Compound 1, (S)-2-(3-((2-amino-4-methyl-6-((1-(methylsulfonyl)heptan-3-yl)amino)pyrimidin-5-yl)methyl)-4-methoxyphenyl)acetic acid], for which the EC50 under setting [3] came out at 100 nM.

Take `CCCC[C@@H](CCS(C)(=O)=O)Nc1nc(N)nc(C)c1Cc1cc(CC(=O)N[C@@H](C)C(=O)O)ccc1OC` [Compound 1-alanine conjugate]: the EC50 under setting [3] is 100 nM.

The EC50 is the concentration that produces a half-maximal response.

The values are drawn from patent US20210228713A1, “TLR7 PEPTIDE CONJUGATES” (Apros Therapeutics, Inc., priority 2018, published 2021).
